Measurements taken from PubChem BioAssay AID2065 (Southern Research Specialized Biocontainment Screening …, 2009).
Activity calls are given as the source filed them. The rule behind the calls is not given here.

system: West Nile virus-infected cells, virus titer reduction; test: West Nile virus yield reduction, cell-based, synthesized compounds (AID 2065); conditions: at 20 µM (top of the series)

| SMILES | log titer change, negative = inhibition |
| --- | --- |
| CCOC(=O)C1(Cc2ccccc2C(F)(F)F)CCN(C2CCN(C(C)C)CC2)CC1 | 1.18 (inactive) |
| COc1ccc(-c2csc(N(CCCN(C)C)C(=O)c3ccccc3C)n2)cc1 | -0.48 (inactive) |
| O=C(CSc1nc2ccccc2c(=O)n1-c1ccc(F)cc1)Nc1ccc2c(c1)CCC2 | -4.18 |
| COc1ccc(-c2csc(N(CCCN(C)C)C(=O)c3ccccc3Cl)n2)cc1 | -3.82 |
| O=C(CSc1nc2ccccc2c(=O)n1-c1ccc(F)cc1F)Nc1ccc2c(c1)CCC2 | -3.82 |
| CN(C)CCCN1c2ccc([N+](=O)[O-])cc2CCc2cc([N+](=O)[O-])ccc21 | -3.82 |
| OC1c2cc(Br)ccc2N=C2CCCN21 (stereo not given) | -5.53 |
| O=C(CSc1nc2ccccc2c(=O)n1-c1ccc(F)cc1F)Nc1ccc(N2CCOCC2)cc1 | -4.15 |
| CN(C)CCCNC(=S)N1CCN(c2nc(-c3ccccc3)cs2)CC1 | -2.32 |
| CCN(CC)CCCNC(=S)N1CCN(c2nc(-c3ccccc3)cs2)CC1 | -5.48 |
